From the supplement of paper PMC8671470

Legend:
Settings in all cases: 72 h
[1] = system: KU-812; experiment: cell viability (% survival relative to DMSO control, bortezomib = 0%); higher = less cytotoxic
Outline: (§1)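 Fifteen myeloid leukaemia cell lines (10 AML, 5 CML) were seeded at a density titrated to the linear growth range. They went into 384-well plates with compounds pre-printed at 1, 10, 100, 1000 or 10000 nM in duplicate. After 72 h at 37 °C with 5% CO2, viability was read by CellTiter-Glo luminescence. Values are percent survival, with vehicle set to 100% and a 10 µM positive control to 0%, averaged over the duplicates.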

[2] = system: NOMO-1; experiment: as above
Outline: as §1

[3] = system: MOLM-13; experiment: as above
Outline: as §1

[4] = system: THP-1; experiment: as above
Outline: as §1

[5] = system: myeloid leukemia patient primary cells Pat.10; experiment: cell viability (% survival relative to DMSO control); higher = less cytotoxic
Outline: (§2)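 Thawed, Ficoll-purified mononuclear cells from AML or CML patients in RPMI 1640 with 10% FBS were seeded at 10,000 cells/well on 384-well plates pre-printed with 70 compounds at five tenfold concentrations, 1–10,000 nM, in duplicate, for 72 h. Viability was read by CellTiter-Glo and normalised to DMSO and 10 μM proteasome-inhibitor wells. Where given, area under the curve came from four-parameter log-logistic fits (drc, PharmacoGx R packages).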

[6] = system: myeloid leukemia patient primary cells Pat.14; experiment: as above
Outline: as §2

[7] = system: myeloid leukemia patient primary cells Pat.9; experiment: as above
Outline: as §2

[8] = system: myeloid leukemia patient primary cells Pat.3; experiment: as above
Outline: as §2

[9] = system: myeloid leukemia patient primary cells Pat.11; experiment: as above
Outline: as §2

[10] = system: myeloid leukemia patient primary cells Pat.7; experiment: as above
Outline: as §2

Nc1nc(O)c2c(CCc3ccc(C(=O)N[C@@H](CCC(=O)O)C(=O)O)cc3)c[nH]c2n1 [Pemetrexed]
cell viability ([1]; 1 nM): 98.9%
cell viability ([1]; 10 nM): 102%
cell viability ([1]; 100 nM): 71.1%
cell viability ([1]; 1000 nM): 38.6%
cell viability ([1]; 10000 nM): 39.3%
cell viability ([2]; 1 nM): 91%
cell viability ([2]; 10 nM): 94.8%
cell viability ([2]; 100 nM): 82.8%
cell viability ([2]; 1000 nM): 51.9%
cell viability ([2]; 10000 nM): 50.2%
cell viability ([3]; 1 nM): 95.6%
cell viability ([3]; 10 nM): 101%
cell viability ([3]; 100 nM): 93.5%
cell viability ([3]; 1000 nM): 4.73%
cell viability ([3]; 10000 nM): 1.7%
cell viability ([4]; 1 nM): 85%
cell viability ([4]; 10 nM): 96%
cell viability ([4]; 100 nM): 101%
cell viability ([4]; 1000 nM): 61.7%
cell viability ([4]; 10000 nM): 56.8%
cell viability ([5]; 1 nM): 85.8%
cell viability ([5]; 10 nM): 86%
cell viability ([5]; 100 nM): 51.4%
cell viability ([5]; 1000 nM): 81.3%
cell viability ([5]; 10000 nM): 59.3%
cell viability ([6]; 1 nM): 86.9%
cell viability ([6]; 10 nM): 82.5%
cell viability ([6]; 100 nM): 90.2%
cell viability ([6]; 1000 nM): 94.7%
cell viability ([6]; 10000 nM): 52.5%
cell viability ([7]; 1 nM): 94.3%
cell viability ([7]; 10 nM): 67.3%
cell viability ([7]; 100 nM): 50.7%
cell viability ([7]; 1000 nM): > 100%
cell viability ([7]; 10000 nM): 32.6%
cell viability ([8]; 1 nM): > 100%
cell viability ([8]; 10 nM): 79.5%
cell viability ([8]; 100 nM): 76.8%
cell viability ([8]; 1000 nM): 50.9%
cell viability ([8]; 10000 nM): 45.7%
cell viability ([9]; 1 nM): > 100%
cell viability ([9]; 10 nM): > 100%
cell viability ([9]; 100 nM): > 100%
cell viability ([9]; 1000 nM): > 100%
cell viability ([9]; 10000 nM): 93.9%
cell viability ([10]; 1 nM): 98.8%
cell viability ([10]; 10 nM): 68.1%
